From patent US20250228820A1, “METHODS FOR PREVENTING OR SLOWING THE PROGRESSION OF COGNITIVE DECLINE OR IMPAIRMENT IN SUBJECTS DISPLAYING NORMAL COGNITIVE PERFORMANCE” (AGENEBIO, INC., priority 2022, published 2025)
“And” between values parts separate entries of the source, which are not always exact repeats. Equal values may be shown once.

Key:
[1] = Levetiracetam level in blood after treatment in the LEV-HFC trial; type: in vivo, human; conditions: after two-week treatment with levetiracetam 220 mg extended release daily
Procedure: (§1) A phase II, randomized, double-blind, placebo-controlled crossover clinical trial of 26 CN subjects (ranging in age from 55 to 75 years) to assess the potential effect of levetiracetam on hippocampal functional connectivity (a risk marker for cognitive decline and cognitive impairment and progression to AD) was conducted. 35 patients were recruited and assessed for eligibility and the 26 eligible subjects were separated into Group A or Group B treatment groups. Group A subjects received an oral placebo tablet daily for two weeks followed by a four-week washout period; then, the subjects received an oral levetiracetam tablet daily for two weeks (i.e., two-week placebo treatment, four-week washout period, and two-week levetiracetam treatment). Group B subjects received treatment using the reverse sequence (i.e., two-week levetiracetam treatment, four-week washout period, and two-week placebo treatment). The tablet was characterized by 220 mg levetiracetam in extended release form, i.e. Tablet D (Table 2) above.
A total of 25 participants (15 women with a mean [SD] age of 65.9 [3.8] years and 10 men with a mean [SD] age of 66.7 [5.5] years) were enrolled, randomized (12 participants to group A and 13 participants to group B), and completed the study. […]

[2] = cited from earlier work
[3] = tested on: hippocampal functional connectivity; test: Phase II placebo-controlled crossover trial: hippocampal functional connectivity by resting-state fMRI in cognitively normal subjects; type: in vivo, human
Procedure: as §1
For each scanning session, imaging was carried out on a 3T GE MR750 whole-body scanner (GE Healthcare, Waukesha WI) with a body transmit and a 32-channel head receive coil (Nova Medical, Wilmington MA). Imaging acquisition included T1- and T2-weighted high resolution, anatomical images (TR=2521.27 ms, TE=3.596 ms, Voxel resolution: 0.5×0.5×0.8 mm3, FOV: 25.6 cm, Flip angle: 8°). […]
Total Functional connectivity indices (TFCI) were obtained based on the traditional region of interest (ROI)-based method (Chen et al, 2011) in which individual cerebrums were automatically parcellated into 90 regions, per the Automated Anatomical Labeling (AAL) toolbox (3), and the FCI was calculated as the summation of Pearson cross-correlation coefficients between the seed region and all other regions in the cerebrum. […] Second, functional connectivity between each ROI and the other brain regions was calculated using the Pearson cross-correlation analysis. […]

SMILES: CC[C@@H](C(N)=O)N1CCCC1=O [Levetiracetam, (2S)-2-(2-oxopyrrolidin-1-yl) butanamide]
- LEV [μg] in blood, AVG ([1]; average of 25 subjects): 4.3 µg
- LEV [μg] in blood ([1]; individual subjects, listed as LEV): 3 μg and 4.5 μg and 4.8 μg and 6.1 μg and 2.9 μg and 4.1 μg (2×) and 5.1 μg and 4.4 μg (2×) and 6.3 μg and 4.9 μg and 4.2 μg and 3.1 μg and 2.8 μg and 3.8 μg (2×) and 5.8 μg and 5 μg and 3.2 μg and 3.4 μg and 4 μg and 4.7 μg and 2 μg and 8.2 μg
- Plasma half-life in elderly ([2]; expected in elderly due to decreased renal function): 9 to 10 h
- Time of peak plasma concentrations ([2]; following oral administration): about 1 hour
- Plasma half-life ([2]; in vivo): approximately 7±1 hour
- Time to steady state ([2]; multiple twice-daily dosing): 2 days
- Absorption after oral administration ([2]; oral): rapidly and almost completely absorbed
- Effect of food on bioavailability ([2]; oral): not affected by food
- Functional connectivity of the hippocampus network, levetiracetam compared with placebo ([3]; 220 mg extended release tablet (Tablet D) daily for two weeks, 25 CN subjects, paired t-test, t=−2.8044, p<0.0098, FIG. 6): significantly decreased
- Period I FC (hippocampal functional connectivity) ([3]; individual subjects, first two-week period, levetiracetam 220 mg extended release daily (numbers without *)): 0.209 and 0.602 and 0.148 (2×) and 0.241 and 0.138 and 0.099 and 0.136 and 0.504 and 0.253 and 0.367 and 0.173 and 0.303
- Period II FC (hippocampal functional connectivity) ([3]; individual subjects, second two-week period after four-week washout, levetiracetam 220 mg extended release daily (numbers without *)): 0.264 and 0.238 and 0.366 and 0.013 and 0.352 and 0.31 and 0.048 and 0.177 (2×) and 0.17 and 0.106 and 0.28
